Laboratory results from publication PMC8175350, “Drug repurposing screens identify chemical entities for the development of COVID-19 interventions” (Nature Communications, 2021).
pEC50: −log10 of the molar value. Structures can show the parent of a compound that is named as a salt. Where two headings read alike, the source gives them in different places.

Assays:
SARS-CoV-2 [1] = assay: microbe, parasite or virus in culture; assay type: cell-based; conditions: for Emax: Severe acute respiratory syndrome coronavirus 2, HeLa-ACE2, 24 h, read-out: HeLa-ACE2 CoV-2 Sinf Average; for HeLa-ACE2 SI: selectivity index, uninfected HeLa-ACE2 CC50 / SARS-CoV-2 EC50
[2] = Uninfected HeLa-ACE2 24 h live/dead cytotoxicity counter screen; assay type: cell-based, human; conditions: human, uninfected HeLa-ACE2 cells
HeLa-ACE2 cells [3] = assay: as above; assay type: cell-based, human
SARS-CoV-2 [4] = assay: microbe, parasite or virus in culture; assay type: cell-based; conditions: for Emax: Severe acute respiratory syndrome coronavirus 2, Calu-3, 48 h, read-out: Calu-3 CoV-2 Sinf Average; for Calu-3 SI: selectivity index, uninfected Calu-3 CC50 / SARS-CoV-2 EC50
HeLa-ACE2 cells [5] = assay: cells; conditions: Homo sapiens; for Emax: HeLa-ACE2, 24 h, read-out: HeLa-ACE2 cell count Sinf Average
Calu-3 cells [6] = assay: cells; conditions: Homo sapiens; for Emax: Calu-3, 48 h, read-out: Calu-3 cell count Sinf Average
[7] = cited from earlier work
[8] = Uninfected Calu-3 48 h Cell-Titer Glo cytotoxicity counter screen; conditions: human, uninfected Calu-3 cells
Calu-3 cells [9] = assay: as above
SARS-CoV-2 [10] = assay: microbe, parasite or virus in culture; assay type: cell-based; conditions: for Emax: Severe acute respiratory syndrome coronavirus 2, HeLa-ACE2, 10 h, read-out: HeLa-ACE2 TOA CoV-2 Sinf Average; for pEC50: Severe acute respiratory syndrome coronavirus 2, HeLa-ACE2, read-out: HeLa-ACE2 TOA CoV-2 EC50 GeoMean
SARS-CoV-2 [11] = assay type: cell-based; conditions: for Synergy score with remdesivir (δ): HeLa-ACE2
HeLa-ACE2 cells [12] = assay: Total cell count in the HeLa-ACE2 TOA (time of addition) assay; assay type: cell-based, human; conditions: Homo sapiens, HeLa-ACE2; read-out: HeLa-ACE2 TOA cell count EC50 GeoMean
Calu-3 cells [13] = tested on: Calu-3 cells
HepG2 [14] = conditions: human, 72 h
HEK293T [15] = conditions: human, 72 h
in vitro = conditions: human, Calu-3 Uninf. cells CC50 (µM)
HeLa-ACE2 cells [16] = assay: Total cell count in the HeLa-ACE2 TOA assay; assay type: cell-based; conditions: Homo sapiens
Description: Supplement 41467_2021_23328_MOESM3_ESM.xlsx, sheet "Table S1" | column: HeLa-ACE2 TOA cell count

[17] = HepG2 72 h CellTiter-Glo cytotoxicity; conditions: human, HepG2 cells
HepG2 [18] = assay: HepG2 72 h CellTiter-Glo cytotoxicity; conditions: 72 h
[19] = HEK293T 72 h CellTiter-Glo cytotoxicity; conditions: human, HEK293T cells
HEK293T [20] = assay: HEK293T 72 h CellTiter-Glo cytotoxicity; conditions: 72 h
[21] = curve-fit effect at infinite concentration, average
[22] = Severe acute respiratory syndrome coronavirus 2, HeLa-ACE2, reconfirmed hits, read-out: HeLa-ACE2 SARS-CoV-2 EC50
[23] = reconfirmed hits, read-out: HeLa-ACE2 Uninf. cells CC50
[24] = Severe acute respiratory syndrome coronavirus 2, Calu-3, reconfirmed hits, read-out: Calu-3 SARS-CoV-2 EC50
[25] = Calu-3 Uninf. cells CC50 (µM), reconfirmed hits
[26] = Severe acute respiratory syndrome coronavirus 2, HeLa-ACE2, detail column, read-out: HeLa-ACE2 CoV-2 EC50 GeoMean
[27] = read-out: HeLa-ACE2 uninfected cytotoxicity CC50 GeoMean
[28] = human, uninfected HeLa-ACE2 cells, 24 h
[29] = HeLa-ACE2, read-out: HeLa-ACE2 cell count EC50 GeoMean
[30] = Calu-3, read-out: Calu-3 cell count EC50 GeoMean
[31] = curve plateau at infinite concentration
[32] = read-out: Approx. Cmax, human oral, ref [33]-[49]
[33] = Calu-3 uninfected cytotoxicity CC50 GeoMean

Structure (SMILES) | pEC50 (SARS-CoV-2 [1]; [22]) | CC50 at 24 h [2, 23] | pEC50 (SARS-CoV-2 [4]; [24]) | Emax (HeLa-ACE2 cells [5]) | Emax (Calu-3 cells [6]) | Approx. t1/2 ([7]; human, ref [33]-[49]) | CC50 at 48 h [8, 25] | Emax (SARS-CoV-2 [1]) | pEC50 (SARS-CoV-2 [1]; [26]) | HeLa-ACE2 SI (SARS-CoV-2 [1]) | CC50 at 24 h [2, 27] | HeLa-ACE2 uninfected cytotoxicity Sinf Average (HeLa-ACE2 cells [3]; [28]) | Emax (SARS-CoV-2 [4]) | Calu-3 SI (SARS-CoV-2 [4]) | Emax (SARS-CoV-2 [10]) | pEC50 (SARS-CoV-2 [10]) | Synergy score with remdesivir (δ) (SARS-CoV-2 [11]) | HeLa-ACE2 synergy score with remdesivi (SARS-CoV-2 [11]; combination with remdesivir) | pEC50 (HeLa-ACE2 cells [5]; [29]) | pEC50 (Calu-3 cells [6]; [30]) | also measured
COC(=O)[C@]12CCC(C)(C)C[C@H]1[C@H]1C(=O)C=C3[C@@]4(C)C=C(C#N)C(=O)C(C)(C)[C@@H]4CC[C@@]3(C)[C@]1(C)CC2 [Bardoxolone methyl] | 6.27 | 3.1 µM | 7.10 | 101% | 41% | 39 h | 3.06 µM | – | – | – | – | – | – | – | – | – | – | – | – | – | Emax (SARS-CoV-2 [1]; [21]): 100%; pEC50 (SARS-CoV-2 [1]; Severe acute respiratory syndrome coronavirus 2, HeLa-ACE2, unrounded geometric mean, read-out: HeLa-ACE2 CoV-2 EC50 GeoMean): 6.27; CC50 at 24 h ([2]; uninfected cells, Fig. 2b group, read-out: HeLa-ACE2 CC50): ≤ 3 µM; CC50 at 24 h ([2]; unrounded geometric mean, read-out: HeLa-ACE2 uninfected cytotoxicity CC50 GeoMean): 3.1 µM; HeLa-ACE2 uninfected cytotoxicity Sinf Average (HeLa-ACE2 cells [3]; [21]): -101%; Emax (SARS-CoV-2 [4]; [21]): 96%; pEC50 (SARS-CoV-2 [4]; Severe acute respiratory syndrome coronavirus 2, Calu-3, unrounded geometric mean, read-out: Calu-3 CoV-2 EC50 GeoMean): 7.10; pEC50 (HeLa-ACE2 cells [5]; HeLa-ACE2, read-out: HeLa-ACE2 cell count EC50 GeoMean, unrounded geometric mean): 5.90; pEC50 (Calu-3 cells [6]; Calu-3, read-out: Calu-3 cell count EC50 GeoMean, unrounded geometric mean): 6.94; Cmax ([7]; read-out: Approx. Cmax, human, oral, ref [36],[37],[42],[43] as in column Refs.): 50 nM; CC50 at 48 h ([8]; Calu-3 uninfected cytotoxicity CC50 GeoMean, unrounded geometric mean): 3.06 µM; Calu-3 uninfected cytotoxicity Sinf Average (Calu-3 cells [9]; [21]): -97%
COc1ccc2c(O[C@@H]3C[C@H]4C(=O)N[C@]5(C(=O)NS(=O)(=O)C6CC6)C[C@H]5/C=C\CCCCN(C)C(=O)[C@@H]4C3)cc(-c3nc(C(C)C)cs3)nc2c1C [Simeprevir] | 5.10 | > 22.2 µM | 5.11 | 100% | 100% | 16 h | – | 100% | < 5.10 | > 2.81 | > 22.2 µM | -100% | 100% | > 2.91 | 100% | < 5.06 | −0.67 | -0.667 δ | < 5.02 | < 5.02 | pEC50 (SARS-CoV-2 [4]; Severe acute respiratory syndrome coronavirus 2, Calu-3, detail column, read-out: Calu-3 CoV-2 EC50 GeoMean): < 5.11; pEC50 (HeLa-ACE2 cells [12]): < 5.02; uninfected Calu-3 CC50 (Calu-3 cells [13]): > 22.39 ×÷ 1.591 (n=6) μM; Calu-3 uninfected cytotoxicity Sinf Average (Calu-3 cells [13]; human, 48 h): -100%; HepG2 72-hour cytotoxicity Sinf Average (HepG2 [14]): -100%; HEK293T 72-hour cytotoxicty Sinf Average (HEK293T [15]): -102%; CC50 at 48 h (in vitro): > 22.4 µM; Cmax ([7]; human, in vivo, po): 32000 nM
CC(C)(C)Cn1c(N)nc2ccc(-c3[nH]c(C(C)(C)C)nc3-c3ccc(F)cc3)nc21 [Ralimetinib mesylate/LY2228820, Ralimetinib mesylate] | 5.73 | 27.4 µM | 5.42 | -60% | 95% | 190 h | 13.8 µM | – | – | – | 27.4 µM | – | – | – | – | 6.10 | – | – | < 5.16 | 5.26 | Emax (SARS-CoV-2 [1]; [31]): 100%; HeLa-ACE2 uninfected cytotoxicity Sinf Average (HeLa-ACE2 cells [3]; [31]): -99%; Emax (SARS-CoV-2 [4]; [31]): 100%; Emax (SARS-CoV-2 [10]; [31]): 100%; HeLa-ACE2 synergy score with remdesivi [δ] (SARS-CoV-2 [11]; combination with remdesivir, synergy score δ): -0.846; Emax (HeLa-ACE2 cells [16]; HeLa-ACE2, 10 h, curve plateau at infinite concentration, read-out: HeLa-ACE2 TOA cell count Sinf Average): 55%; pEC50 (HeLa-ACE2 cells [16]; HeLa-ACE2, read-out: HeLa-ACE2 TOA cell count EC50 GeoMean): < 5.35; Cmax [7, 32]: 5000 nM; CC50 at 72 h [17]: 19.8 µM; HepG2 72-hour cytotoxicity Sinf Average (HepG2 [18]): -100%; CC50 at 72 h [19]: 20.3 µM; HEK293T 72-hour cytotoxicty Sinf Average (HEK293T [20]): -100%; CC50 at 48 h [8, 33]: 13.8 µM; Calu-3 uninfected cytotoxicity Sinf Average (Calu-3 cells [9]; [31]): -97%
CCCCN(CCCC)CCC(O)c1cc2c(Cl)cc(Cl)cc2c2cc(C(F)(F)F)ccc12 (stereo not shown) [Halofantrine HCl] | 6.48 | 18.7 µM | < 5.07 | -39% | – | 58 h | > 22.6 µM | 100% | 5.94 | > 20.66 | > 23.9 µM | -100% | 100% | > 2.67 | 100% | 5.35 | −3.51 | -3.509 δ | < 5.21 | < 5.00 | TOA:HeLa-ACE2 EC50 Ratio (SARS-CoV-2 [10]): 3.833; pEC50 (HeLa-ACE2 cells [12]): < 5.02; Cmax [7, 32]: 1000 nM; CC50 at 72 h [17]: 30.5 µM; HepG2 72-hour cytotoxicity Sinf Average (HepG2 [18]): -100%; CC50 at 72 h [19]: 25.8 µM; HEK293T 72-hour cytotoxicty Sinf Average (HEK293T [20]): -100%; CC50 at 48 h [8, 33]: > 22.6 µM; Calu-3 uninfected cytotoxicity Sinf Average (Calu-3 cells [9]; human, uninfected Calu-3 cells, 48 h): -100%
COC(=O)C1=C(C)NC(C)=C(C(=O)OCCN2CCN(C(c3ccccc3)c3ccccc3)CC2)C1c1cccc([N+](=O)[O-])c1 (stereo not shown) [Manidipine] | 5.16 | > 17.1 µM | 5.26 | – | – | 3 h | – | – | – | – | – | – | – | – | – | – | −4.73 | – | – | – | CC50 at 48 h (in vitro): > 30 µM; Cmax ([7]; human, in vivo, po): 10 nM
